Laboratory results from patent US20180055844A1 (Celgene Corporation, priority 2011, published 2018).
Several values for one entry are separate records, joined by “and”; a condition that tells them apart may be missing. Equal values may be shown once. Read-outs that look alike come from different tables or passages of the source.

Key:
TNFα = experiment: WB TNFα; assay type: cell-based; conditions: Homo sapiens; whole blood
T cells = experiment: Anti-CD3-stimulated human T cell assay, cytokine production; assay type: cell-based
Method: T cells were isolated from buffy coat by negative selection using the RosetteSep® T Cell Enrichment Cocktail. The manufacturer's procedures were followed accordingly. All 96-well plates were pre-coated with 3 μg/ml anti-human CD3 antibody in 100 μl 1×PBS for 4 hours at 37° C. The plates were washed three times with RPMI-1640 Complete Media prior to the T cell assay. T cells were then plated in CD3 pre-coated plates at a density of 2.5×10^5 cells/well in 180 μl RPMI-1640 Complete Media. The cells were treated with 20 μl 10× titrated compounds at 10, 1, 0.1, 0.01, 0.001, 0.0001 and 0.00001 μM. Final DMSO concentrations were 0.25%. The plates were incubated for 48 hours at 37° C., 5% CO2. After 48 hours, the supernatants were harvested and tested by a multi-plex cytometric bead array (CBA) assay for the following cytokines/chemokines: IL-2, IL-3, IL-5, IL-10, IL-13, IL-15, IL-17a, GM-CSF, G-SCF, IFN-γ, TNF-α and RANTES. The CBA plates were analyzed on the Luminex IS100 instrument. […] All 96-well plates were pre-coated with 3 μg/mL anti-human CD3 antibody in 100 μL 1×PBS for 4 hours at 37° C. The plates were washed 3 times with RPMI-1640 Complete Media prior to the T cell assay. The T cells were then plated in anti-CD3-pre-coated plates at a density of 2.5×10^5 cells/well in 180 μL RPMI-1640 Complete Media. The cells were treated with 20 μL 10× titrated Celgene compounds at 10, 1, 0.1, 0.01, 0.001, 0.0001, and 0.00001 μM in duplicate. The final DMSO concentrations were 0.25%. The plates were incubated for 48 hours at 37° C., 5% CO2. After 48 hours, the supernatants were harvested and tested by a multiplex cytometric bead array (CBA) assay for the following cytokines/chemokines: IL-2, IL-3, IL-5, IL-10, IL-13, IL-15, IL-17A, GM-CSF, G-CSF, IFN-γ, TNF-α, and RANTES. The CBA plates were analyzed on the Luminex IS100 instrument.

DoHH-2 cells = experiment: Cytotoxicity assay (3 day ATP production); assay type: cell-based; conditions: Homo sapiens, 72 hours, read-out: DoHH2 (FL) GIC50
Method: (§1) Cells line Farage, DOHH2 and Rec-1 were obtained from American Type Culture Collection (Manassas, Va., USA) Cytotoxicity assays were measured in 3 day ATP production assays as follows: The cells were plated in black/clear-bottom 96-well TC plates (BD Falcon, Cat #353948) at 3000 cells/75 μL (for DoHH-2 and Farage cells) or 6000 cells/75 μL (Rec-1 cells) media per well. […] Plates were then sealed with breathable sealing films (ISC BioExpress, Cat # T-2421-50) and placed in a 37° C., 5% CO2 humidified incubator for 72 hours. In addition, cells were seeded in a separate plate in the same manner as above, 25 μL medium in 1% DMSO was added to each well. This plate was immediately tested in the CellTiter-Glo Luminescent Cell Viability Assay (Promega, Cat # G7572) as 0 time point and the results were used to calculate GIC50 in the Farage and DOHH-2 cell experiments After 72 hours of incubation, 100 μL of CellTiter-Glo reagent were added to each well and incubated at room temperature with gentle shaking for 30 minutes. The plates were then analyzed for luminescence in a TopCount NXT Reader (Packard). Each well was counted for one second. Values for duplicate wells were averaged and then compared to the zero time point DMSO control (0% inhibition) to calculate the percentage inhibition of cell growth. Mean DOHH-2 GIC50 values and Farage GIC50 values were calculated from three experiments. Rec-1 IC50 values were calculated from two experiments.

Farage cells = experiment: Cytotoxicity assay (3 day ATP production); assay type: cell-based; conditions: 72 hours, read-out: Farage (GCB-DLBCL) GIC50
Method: as §1

Rec-1 cells = experiment: Cytotoxicity assay (3 day ATP production); assay type: cell-based; conditions: Homo sapiens, Rec1; 72 hours; read-out: REC1 (MCL) IC50
Method: as §1

human umbilical artery = experiment: Human umbilical artery angiogenesis assay; assay type: cell-based
[1] = Proliferation assays with Rituxan (Chou-Talalay method); assay type: cell-based
Oral pharmacokinetics [2] = assay type: in vivo; conditions: SCID mouse
Oral pharmacokinetics [3] = assay type: in vivo; conditions: Cyno monkey
[4] = Oral administration for 7 consecutive days in rat; set-up: species or system male CD-IGS rat; conditions: in vivo
Method: The NOAEL was determined to be 1000 mg/kg/day.

HepG2 = experiment: Invasion of solid tumor cells; assay type: cell-based; conditions: Homo sapiens; HepG2 (VEGF), hepatocellular
SF-539 = experiment: Invasion of solid tumor cells; assay type: cell-based; conditions: Homo sapiens; SF-539 (PDGF), glioblastoma
HCT15 = experiment: Solid tumor cell colony formation; assay type: cell-based; conditions: Homo sapiens, HCT-15
SK-HEP-1 = experiment: Solid tumor cell colony formation; assay type: cell-based; conditions: Homo sapiens, SK-HEP1
HEP-G2 = experiment: Solid tumor cell colony formation; assay type: cell-based; conditions: Homo sapiens, HepG2
SF295 = experiment: Solid tumor cell colony formation; assay type: cell-based; conditions: Homo sapiens, SF-295
PC-3 = experiment: Solid tumor cell colony formation; assay type: cell-based; conditions: Homo sapiens
HUVEC = HUVEC migration; assay type: cell-based; conditions: Homo sapiens
[5] = cynomolgus monkey, plasma, 3 mg/kg, 3 mpk po

SMILES: Cc1nc2cccc(N)c2c(=O)n1C1CCC(=O)NC1=O (centres unmarked) [compound of Formula I, 3-(5-amino-2-methyl-4-oxo-4H-quinazolin-3-yl)-piperidine-2,6-dione]
- IC50 (TNFα): 0.164 µM
- IL-5 production increase (T cells; 0.01 μM): 3 fold
- IL-5 production increase (T cells; 0.1 μM): 4 fold
- production of IL-2, IL-3, IL-5, IL-10, IL-15, GM-CSF, INF-γ, RANTES, and TNF-α (T cells; 0.01 to 10 μM): enhanced
- IL-10 production (T cells; 1 and 10 μM): inhibited
- EC50 (T cells; Homo sapiens, T-cell, read-out: T cell IL-2 EC50): 0.012 to 0.014 µM
- IL-10 production enhancement (T cells; low concentrations (≦0.01 μM)): 2 fold
- IC50 (DoHH-2 cells): 0.61 µM
- IC50 (Farage cells): 0.7 µM
- IC50 (Rec-1 cells): 0.47 µM
- IC50 (human umbilical artery; read-out: Human angiogenesis IC50): 0.0094 µM
- IC50 (human umbilical artery; read-out: anti-angiogenic IC50, human umbilical artery assay): 0.0094 µM
- interaction with Rituxan in proliferation assays [1]: synergistically
- AUC (Oral pharmacokinetics [2]; in vivo, 3 mg/kg, 3 mpk po): 7100 ng·h/mL and 25 µM·h
- Cmax (Oral pharmacokinetics [2]; in vivo, 3 mg/kg, 3 mpk po): 2900 ng/mL and 10 µM
- Exposures (AUC(0-t)) versus dose (Oral pharmacokinetics [2]; up to 30 mg/kg): increased in a dose proportional manner
- F (Oral pharmacokinetics [3]; 3 mpk po): 32%
- AUC (Oral pharmacokinetics [3]; [5]): 12000 ng·h/mL and 43 µM·h
- Cmax (Oral pharmacokinetics [3]; [5]): 3300 ng/mL and 11 µM
- half-life (Oral pharmacokinetics [3]; cynomolgus monkey, plasma, oral, 3 mpk): 5.8 h
- clearance (Oral pharmacokinetics [3]; cynomolgus monkey, plasma, read-out: CLp): 1.2 mL/min/kg
- NOAEL at 7 days ([4]; oral, 7 consecutive days, male CD-IGS rat): 1000 mg/kg/day
- exposure versus dose ([4]; rat): near dose proportional exposure increases
- IC50 (HepG2): < 0.001 µM
- IC50 (SF-539): 0.025 µM
- inhibition at 10 µM (HCT15): 3%
- inhibition at 10 µM (SK-HEP-1): 6%
- inhibition at 10 µM (HEP-G2): 6.9%
- inhibition at 10 µM (SF295): 12.9%
- inhibition at 10 µM (PC-3): 14.8%
- inhibition at 1 µM (HUVEC; read-out: inhibition of VEGF-induced migration): 38%
- inhibition at 1 µM (HUVEC; read-out: inhibition of bFGF-induced migration): 28%
